Results published in patent US20240366739A1, “MEDICAMENT FOR TREATMENT AND/OR PREVENTION OF CANCER” (TORAY INDUSTRIES, INC., priority 2021, published 2024).

Tested on: mouse lymphoma cell line EG7 (OVA-expressing cancer cells) subcutaneously transplanted
Experiment: in vivo antitumor effect in cancer-bearing mice (tumor volume measured with calipers)
Conditions: Example 6; C57BL/6NCR mice with EG7 tumors; particle 0.5 mg s.c. once a week x2 from day 7; Poly(I:C) 50 μg into tumors twice a week x4; mixture given s.c.

## Poly(I:C)
  tumor growth / regression (tumor volume): not changed compared to negative controls
